This note sets out measurements from patent US20050101595A1, “N-containing cycloalkyl-substituted amino-thiazole derivatives and pharmaceutical compositions for inhibiting cell proliferation and methods for their use” (PFIZER INC., priority 2003, published 2005).

Usually IC50 stands for the midpoint of a concentration-inhibition curve. One may read the inhibition as the share of the control response that was lost under treatment.

Counter-ions that a name gives are not always drawn.

The target in assay [1] is CDK2/Cyclin A (Homo sapiens, UniProt P24941). In words: Inhibition of CDK2/Cyclin A Retinoblastoma Kinase Activity. The format is biochemical. Conditions: for Ki: apparent Ki, CDK2/proteolyzed cyclin A, Rb fragment substrate, 25 μM ATP; for inhibition at 0.05 µM: read-out: % inhibition of CDK2 (@ 0.05 μM), compound at 0.05 μM. The method, then:
Cyclin-dependent kinase activity was measured by quantifying the enzyme-catalyzed, time-dependent incorporation of radioactive phosphate from [^32P]ATP or [^33P]ATP into a protein substrate. Unless noted otherwise, assays were performed in 96-well plates in a total volume of 50 μL, in the presence of 10 mM HEPES (N-[2-hydroxyethyl]piperazine-N′-[2-ethanesulfonic acid]) (pH 7.4), 10 mM MgCl2, 25 μM adenosine triphosphate (ATP), 1 mg/mL ovalbumin, 5 μg/mL leupeptin, 1 mM dithiothreitol, 10 mM β-glycerophosphate, 0.1 mM sodium vanadate, 1 mM sodium fluoride, 2.5 mM ethylene glycol-bis(β-aminoethyl ether)-N,N,N′N′-tetraacetic acid (EGTA), 2% (v/v) dimethylsulfoxide, and 0.03-0.4 μCi [^32/33P]ATP per reaction. Reactions were initiated with enzyme, incubated at 30° C., and terminated after 20 minutes by the addition of ethylenediaminetetraacetic acid (EDTA) to 250 mM. The phosphorylated substrate was then captured on a nitrocellulose or phosphocellulose membrane using a 96-well filtration manifold, and unincorporated radioactivity was removed by repeated washing with 0.85% phosphoric acid. Radioactivity was quantified by exposing the dried membranes to a phosphorimager.
Inhibition was measured relative to control wells that contained all reaction components including 2% (v/v) DMSO but no compound, after subtraction of background radioactivity measured in the absence of enzyme. Apparent Ki values of discrete compounds were measured by assaying enzyme activity in the presence of different inhibitor compound concentrations and subtracting the background radioactivity measured in the absence of enzyme. The kinetic parameters (kcat, Km for ATP) were measured for each enzyme under the usual assay conditions by determining the dependence of initial rates on ATP concentration. Inhibition data were fit to an equation for competitive inhibition using Kaleidagraph (Synergy Software), or were fit to an equation for competitive tight-binding inhibition using the software KineTic (BioKin, Ltd.).
Inhibition of CDK2/Cyclin A Retinoblastoma Kinase Activity:
CDK2 was purified using published methodology (Rosenblatt et al., “Purification and Crystallization of Human Cyclin-dependent Kinase 2,” J. Mol. Biol., vol. 230, 1993, pp. 1317-1319) from insect cells that had been infected with a baculovirus expression vector. […] A complex of CDK2 and proteolyzed cyclin A was prepared and purified by gel filtration. The substrate for this assay was the same Rb substrate fragment used for the CDK4 assays, and the methodology of the CDK2/delta cyclin A and the CDK4/delta cyclin D3 assays was essentially the same, except that CDK2 was present at 10 nM or 19 nM. The duration of the assay was 60 or 75 minutes, during which the time-dependence of product formation was linear and initial rate conditions were met. And, the percent inhibitions of the compounds of Example O through Example R were calculated as described above and shown in Table 2.

Assay [2] concerns HCT-116 cell line. In words: Inhibition of cell growth, tetrazolium salt (MTT) assay. The class given is cell-based. Conditions: for IC50 / inhibition at 0.25 µM / inhibition at 0.175 µM: Homo sapiens; for IC50: HCT-116, 120 h, first HCT-116 column (c4), three to five days, read-out: HCT-116 IC50; for IC50 / inhibition at 0.175 µM: MTT; for inhibition at 0.25 µM: HCT-116, HCT116 cells, read-out: % Inhibition HCT116 @ 250 nM; for inhibition at 0.25 µM / % Inhibition HCT116 @ 250 nM: compound at 250 nM; for % Inhibition HCT116 @ 250 nM: HCT116 cells, 0.25 µM; for inhibition at 0.175 µM: HCT-116, HCT-116 cells, compound at 0.175 uM. The gist of the method:
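Growth inhibition is scored relative to cells receiving only 0.5% (v/v) DMSO. Plated cells rest 4 h, then take compound for three to five days at 37° C; MTT reduction to formazan is read at 540 nm.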

In the case of `Nc1nc(NC2CCN(S(=O)(=O)CCCNC3CCCCC3)CC2)sc1C(=O)c1c(F)cccc1F` [Example K55, {4-Amino-2-[1-(3-cyclohexylamino-propane-1-sulfonyl)-piperidin-4-ylamino]-thiazol-5-yl}-(2,6-difluoro-phenyl)-methanone], the Ki in assay [1] came to 8 nM. Moreover, the IC50 in assay [2] was determined as 680 nM.

With `Nc1nc(NC2CCN(S(=O)(=O)CCCNc3ccccn3)CC2)sc1C(=O)c1c(F)cccc1F` [Example K56, (4-Amino-2-{1-[3-(pyridin-2-ylamino)-propane-1-sulfonyl]-piperidin-4-ylamino}-thiazol-5-yl)-(2,6-difluoro-phenyl)-methanone. Trifluoroacetic Acid Salt], in assay [1], the Ki stood at 8 nM. Also, the IC50 in assay [2] worked out at 2640 nM.

For the compound `C=CCNCCCS(=O)(=O)N1CCC(Nc2nc(N)c(C(=O)c3c(F)cccc3F)s2)CC1` [Example K57, {2-[1-(3-Allylamino-propane-1-sulfonyl)-piperidin-4-ylamino]-4-amino-thiazol-5-yl}-(2,6-difluoro-phenyl)-methanone. Trifluoroacetic Acid Salt], the Ki in assay [1] is 7 nM. For the same compound, the IC50 in assay [2] was found to be 480 nM.

In the case of `CC1CCN(CCCS(=O)(=O)N2CCC(Nc3nc(N)c(C(=O)c4c(F)cccc4F)s3)CC2)CC1` [Example K58, {4-Amino-2-[(1-{[3-(4-methylpiperidin-1-yl)propyl]sulfonyl}piperidin-4-yl)amino]-1,3-thiazol-5-yl}(2,6-difluorophenyl)methanone], the Ki in assay [1] worked out at 11 nM. For the same compound, in assay [2], the IC50 came to 150 nM.

Consider `COC1CCN(CCCS(=O)(=O)N2CCC(Nc3nc(N)c(C(=O)c4c(F)cccc4F)s3)CC2)CC1` [Example K59, {4-Amino-2-[(1-{[3-(4-methoxypiperidin-1-yl)propyl]sulfonyl}piperidin-4-yl)amino]-1,3-thiazol-5-yl}(2,6-difluorophenyl)methanone], for which the Ki in assay [1] is 11 nM. Further, in assay [2], the 50% inhibitory concentration (IC50) was 270 nM.

In the case of `CC1(C)CCCN(CCCS(=O)(=O)N2CCC(Nc3nc(N)c(C(=O)c4c(F)cccc4F)s3)CC2)C1` [Example K60, {4-Amino-2-[(1-{[3-(3,3-dimethylpiperidin-1-yl)propyl]sulfonyl}piperidin-4-yl)amino]-1,3-thiazol-5-yl}(2,6-difluorophenyl)methanone], in assay [1], the Ki is 13 nM. Further, the IC50 in assay [2] turned out to be 120 nM.

For the compound `CN(CCCS(=O)(=O)N1CCC(Nc2nc(N)c(C(=O)c3c(F)cccc3F)s2)CC1)C1CCCCC1` [Example K61, (4-Amino-2-{1-[3-(cyclohexyl-methyl-amino)-propane-1-sulfonyl]-piperidin-4-ylamino}-thiazol-5-yl)-(2,6-difluoro-phenyl)-methanone. Acetic Acid Salt], the Ki in assay [1] was 8 nM. Moreover, in assay [2], the IC50 came to 170 nM.

As for `CN1CCC(NCCS(=O)(=O)N2CCC(Nc3nc(N)c(C(=O)c4c(F)cccc4F)s3)CC2)C1=O` (stereo not shown) [Example S157], in assay [2], the inhibition at 0.25 µM was 16%.

Take `Nc1nc(NC2CCN(S(=O)(=O)CCNCc3cccc(F)c3F)CC2)sc1C(=O)c1c(F)cccc1F` [Example S158]: the inhibition at 0.25 µM in assay [2] is 73%.

In the case of `Nc1nc(NC2CCN(S(=O)(=O)CCNCCc3ccccc3F)CC2)sc1C(=O)c1c(F)cccc1F` [Example S159], the inhibition at 0.25 µM in assay [2] came out at 44%.

As to `N#CCNCCS(=O)(=O)N1CCC(Nc2nc(N)c(C(=O)c3c(F)cccc3F)s2)CC1` [Example S160], the “% Inhibition HCT116 @ 250 nM” value in assay [2] is on record as 30%.

For `Nc1nc(NC2CCN(S(=O)(=O)CCNC3Cc4ccccc4C3)CC2)sc1C(=O)c1c(F)cccc1F` [Example S161], the inhibition at 0.25 µM in assay [2] was determined as 45%.

`CC(CCCC(C)(C)O)NCCS(=O)(=O)N1CCC(Nc2nc(N)c(C(=O)c3c(F)cccc3F)s2)CC1` (stereo not shown) [Example S162]: in assay [2], the inhibition at 0.25 µM stood at 22%.

As for `CC1CCN(CCNCCS(=O)(=O)N2CCC(Nc3nc(N)c(C(=O)c4c(F)cccc4F)s3)CC2)CC1` [Example S163], the inhibition at 0.25 µM in assay [2] was 25%.

For the compound `Cc1ccc(CNCCS(=O)(=O)N2CCC(Nc3nc(N)c(C(=O)c4c(F)cccc4F)s3)CC2)o1` [Example S164], the inhibition at 0.25 µM in assay [2] was found to be 28%.

`CC(=O)NCCNCCS(=O)(=O)N1CCC(Nc2nc(N)c(C(=O)c3c(F)cccc3F)s2)CC1` [Example S165]: the “% Inhibition HCT116 @ 250 nM” value in assay [2] was 25%.

Consider `CC(C)OCCNCCS(=O)(=O)N1CCC(Nc2nc(N)c(C(=O)c3c(F)cccc3F)s2)CC1` [Example S166], for which the inhibition at 0.25 µM in assay [2] was 9%.

On to `Nc1nc(NC2CCN(S(=O)(=O)CCNCCc3cccnc3)CC2)sc1C(=O)c1c(F)cccc1F` [Example S167], for which, in assay [2], the inhibition at 0.25 µM is 3%.

With `Nc1nc(NC2CCN(S(=O)(=O)CCNCC(=O)NO)CC2)sc1C(=O)c1c(F)cccc1F` [Example S168], the inhibition at 0.25 µM in assay [2] amounted to 16%.

In the case of `Nc1nc(NC2CCN(S(=O)(=O)CCNCc3ccc4c(c3)CCO4)CC2)sc1C(=O)c1c(F)cccc1F` [Example S169], the inhibition at 0.25 µM in assay [2] is 17%.

For `Nc1nc(NC2CCN(S(=O)(=O)CCN[C@@H]3C=CCCC3)CC2)sc1C(=O)c1c(F)cccc1F` [Example S170], the inhibition at 0.25 µM in assay [2] amounted to 15%.

On to `Cc1cnc(CNCCS(=O)(=O)N2CCC(Nc3nc(N)c(C(=O)c4c(F)cccc4F)s3)CC2)cn1` [Example S171], for which the inhibition at 0.25 µM in assay [2] was 18%.

With `Nc1nc(NC2CCN(S(=O)(=O)CCN[C@H]3C=CCCC3)CC2)sc1C(=O)c1c(F)cccc1F` [Example S172], the inhibition at 0.25 µM in assay [2] worked out at 20%.

For the compound `CC(C)(NCCS(=O)(=O)N1CCC(Nc2nc(N)c(C(=O)c3c(F)cccc3F)s2)CC1)c1ccccc1` [Example S173], the inhibition at 0.25 µM in assay [2] amounted to 35%.

For `Nc1nc(NC2CCN(S(=O)(=O)CCN3CCC3)CC2)sc1C(=O)c1c(F)cccc1F` [Example S174], the inhibition at 0.25 µM in assay [2] was 10%.

`C#CC(CC)(CC)NCCS(=O)(=O)N1CCC(Nc2nc(N)c(C(=O)c3c(F)cccc3F)s2)CC1` [Example S175]: the inhibition at 0.25 µM in assay [2] was determined as 99%.

In the case of `CN1CCCN(CCS(=O)(=O)N2CCC(Nc3nc(N)c(C(=O)c4c(F)cccc4F)s3)CC2)CC1` [Example S176], the inhibition at 0.25 µM in assay [2] was found to be 17%.

In the case of `C[C@@H](NCCC(=O)N1CCC(Nc2nc(N)c(C(=O)c3c(F)cccc3F)s2)CC1)c1ccccc1` [Example U1, Trifluoroacetic Acid Salt], the Ki in assay [1] came to 20.7 nM. The 50% inhibitory concentration (IC50) in assay [2] turned out to be 910 nM.

In the case of `CC(C)(C)NCCC(=O)N1CCC(Nc2nc(N)c(C(=O)c3c(F)cccc3F)s2)CC1` [Example U4, Acetic Acid Salt], the inhibition at 0.5 µM in assay [1] (@0.5 μM, printed in the CDK2 Ki column) is 40%. Moreover, the half-inhibitory concentration (IC50) in assay [2] is more than 5000 nM.

On to `Nc1nc(NC2CCN(S(=O)(=O)CCCNCCC3CCCN3)CC2)sc1C(=O)c1c(F)cccc1F` (stereo not shown) [Example V1], for which the inhibition at 0.05 µM in assay [1] came to 80%. Also, the inhibition at 0.175 µM in assay [2] came out at 7%.

On to `Nc1nc(NC2CCN(S(=O)(=O)CCCNc3ccccn3)CC2)sc1C(=O)c1c(F)cccc1F` [Example V2], for which the inhibition at 0.05 µM in assay [1] was 85%. Also, the inhibition at 0.175 µM in assay [2] turned out to be 6%.

For the compound `Nc1nc(NC2CCN(S(=O)(=O)CCCNCCCn3ccnc3)CC2)sc1C(=O)c1c(F)cccc1F` [Example V3], the inhibition at 0.05 µM in assay [1] is 84%. The inhibition at 0.175 µM in assay [2] is 17%.

Consider `Nc1nc(NC2CCN(S(=O)(=O)CCCNCCCO)CC2)sc1C(=O)c1c(F)cccc1F` [Example V4], for which, in assay [1], the inhibition at 0.05 µM came to 75%. Moreover, in assay [2], the inhibition at 0.175 µM came to 19%.
